Test results published in publication PMC7561186, “Rational design of balanced dual-targeting antibiotics with limited resistance” (PLoS Biology, 2020).
≈ marks a conversion by molar mass, not a printed value. Where two headings read alike, the source gives them in different places.

System: S. aureus clinical isolates
Experiment: microbe, parasite or virus in culture
Assay type: cell-based
Settings: Staphylococcus aureus, read-out: MIC

For `CC(=O)NC[C@H]1CN(c2ccc(N3CCOCC3)c(F)c2)C(=O)O1` [Linezolid], the MIC (MRSA, S. aureus IHMA 1621638, MRSA / VSSA) was 2 µg/mL (≈ 5.93 µM), the MIC (MRSA, S. aureus IHMA 1622252, MRSA / VSSA) was 4 µg/mL (≈ 11.9 µM) and the MIC (MRSA, S. aureus IHMA 1622527, MRSA / VSSA) was 4 µg/mL (≈ 11.9 µM). It also gave an MIC (MRSA, S. aureus IHMA 1666371, MRSA / VSSA) of 0.5 µg/mL (≈ 1.48 µM), an MIC (MRSA, S. aureus IHMA 1695391, MRSA / VSSA) of 2 µg/mL (≈ 5.93 µM) and an MIC (MRSA, S. aureus IHMA 1703428, MRSA / VSSA) of 2 µg/mL (≈ 5.93 µM). It also gave an MIC (MRSA, S. aureus IHMA 1720350, MRSA / VSSA) of 2 µg/mL (≈ 5.93 µM), an MIC (MRSA, S. aureus IHMA 1732989, MRSA / VSSA) of 4 µg/mL (≈ 11.9 µM) and an MIC (MRSA, S. aureus IHMA 1742231, MRSA / VSSA) of 2 µg/mL (≈ 5.93 µM). The MIC (MRSA, S. aureus IHMA 1766357, MRSA / VSSA) was 4 µg/mL (≈ 11.9 µM), the MIC (MSSA / NRS 12 / VISA, S. aureus IHMA 1308244, NRS12, MSSA / VISA) was 4 µg/mL (≈ 11.9 µM) and the MIC (MSSA / NRS 13 / VISA, S. aureus IHMA 1308245, NRS13, MSSA / VISA) was 2 µg/mL (≈ 5.93 µM). It also gave an MIC (MSSA / NRS 14 / VISA, S. aureus IHMA 1308246, NRS14, MSSA / VISA) of 2 µg/mL (≈ 5.93 µM), an MIC (MSSA / NRS 17 / VISA, S. aureus IHMA 1308247, NRS17, MSSA / VISA) of 2 µg/mL (≈ 5.93 µM) and an MIC (MSSA / NRS 28 / VISA, S. aureus IHMA 1308249, NRS28, MSSA / VISA) of 0.5 µg/mL (≈ 1.48 µM). It also gave an MIC (MSSA / NRS 52, S. aureus IHMA 1308252, NRS52, MSSA / VSSA* (*Expected VAN intermediate, confirmed VAN susceptible twice), test date 2018-11-07) of 1 µg/mL (≈ 2.96 µM), an MIC (MSSA / USA100 / VRSA, S. aureus IHMA 672236, VRS6, MSSA / VRSA, USA100) of 1 µg/mL (≈ 2.96 µM) and an MIC (MSSA, S. aureus IHMA 1563826, MSSA / VSSA) of 4 µg/mL (≈ 11.9 µM). It also gave an MIC (MSSA, S. aureus IHMA 1565492, MSSA / VSSA) of 2 µg/mL (≈ 5.93 µM), an MIC (MSSA, S. aureus IHMA 1569499, MSSA / VSSA) of 2 µg/mL (≈ 5.93 µM) and an MIC (MSSA, S. aureus IHMA 1569754, MSSA / VSSA) of 2 µg/mL (≈ 5.93 µM). It also gave an MIC (MSSA, S. aureus IHMA 1574202, MSSA / VSSA) of 2 µg/mL (≈ 5.93 µM), an MIC (MSSA, S. aureus IHMA 1575652, MSSA / VSSA) of 4 µg/mL (≈ 11.9 µM) and an MIC (MSSA, S. aureus IHMA 1575779, MSSA / VSSA) of 2 µg/mL (≈ 5.93 µM). It also gave an MIC (MSSA, S. aureus IHMA 1576329, MSSA / VSSA) of 4 µg/mL (≈ 11.9 µM), an MIC (MSSA, S. aureus IHMA 1577800, MSSA / VSSA) of 4 µg/mL (≈ 11.9 µM) and an MIC (MSSA, S. aureus IHMA 1578560, MSSA / VSSA) of 4 µg/mL (≈ 11.9 µM). The MIC (MSSA, S. aureus IHMA 1580233, MSSA / VSSA) was 2 µg/mL (≈ 5.93 µM), the MIC (MSSA, S. aureus IHMA 1580925, MSSA / VSSA) was 2 µg/mL (≈ 5.93 µM) and the MIC (MSSA, S. aureus IHMA 1580955, MSSA / VSSA) was 2 µg/mL (≈ 5.93 µM). The MIC (MSSA, S. aureus IHMA 1582586, MSSA / VSSA) was 8 µg/mL (≈ 23.7 µM), the MIC (MSSA, S. aureus IHMA 1582691, MSSA / VSSA) was 2 µg/mL (≈ 5.93 µM) and the MIC (MSSA, S. aureus IHMA 1584230, MSSA / VSSA) was 4 µg/mL (≈ 11.9 µM). For the same compound, the MIC (MSSA, S. aureus IHMA 1587279, MSSA / VSSA) was 1 µg/mL (≈ 2.96 µM), the MIC (MSSA, S. aureus IHMA 1591459, MSSA / VSSA) was 2 µg/mL (≈ 5.93 µM) and the MIC (MSSA, S. aureus IHMA 1592749, MSSA / VSSA) was 2 µg/mL (≈ 5.93 µM). The MIC (MSSA, S. aureus IHMA 1592751, MSSA / VSSA) was 4 µg/mL (≈ 11.9 µM), the MIC (MSSA, S. aureus IHMA 1594297, MSSA / VSSA) was 2 µg/mL (≈ 5.93 µM) and the MIC (MSSA, S. aureus IHMA 1597120, MSSA / VSSA) was 4 µg/mL (≈ 11.9 µM). It also gave an MIC (MSSA, S. aureus IHMA 1597125, MSSA / VSSA) of 2 µg/mL (≈ 5.93 µM), an MIC (MSSA, S. aureus IHMA 1599157, MSSA / VSSA) of 2 µg/mL (≈ 5.93 µM) and an MIC (MSSA, S. aureus IHMA 1599506, MSSA / VSSA) of 4 µg/mL (≈ 11.9 µM). It also gave an MIC (MSSA, S. aureus IHMA 1602078, MSSA / VSSA) of 4 µg/mL (≈ 11.9 µM), an MIC (MSSA, S. aureus IHMA 1604586, MSSA / VSSA) of 2 µg/mL (≈ 5.93 µM) and an MIC (MSSA, S. aureus IHMA 1604609, MSSA / VSSA) of 2 µg/mL (≈ 5.93 µM). For the same compound, the MIC (MSSA, S. aureus IHMA 1609919, MSSA / VSSA) was 2 µg/mL (≈ 5.93 µM), the MIC (MSSA, S. aureus IHMA 1622864, MSSA / VSSA) was 2 µg/mL (≈ 5.93 µM) and the MIC (MSSA, S. aureus IHMA 1626392, MSSA / VSSA) was 2 µg/mL (≈ 5.93 µM). The MIC (MSSA, S. aureus IHMA 1713793, MSSA / VSSA) was 2 µg/mL (≈ 5.93 µM).
